Patent publication EP4613329A1, “COMPOUND FOR INHIBITING BRD PROTEIN” (Benobio Co., Ltd., priority 2024, dated 2025)

Assays:
[1] = target: T1, BRD2 (BD1) (Homo sapiens, UniProt P25440); experiment: Binding inhibitory effect on BRD2 protein (AlphaScreen, GST-BRD2 (BD1) / biotinylated acetyl-histone H4 peptide); conditions: 100 nM GST-BRD2 (BD1), 100 nM biotinylated acetyl-histone H4 (Lys5, 8, 12, 16) peptide
T1 construct: a bromodomain of BRD2 (BD1) and BRD3 (BD1), one of the BRD protein family

[2] = target: T2, BRD3 (BD1) (Homo sapiens, UniProt Q15059); experiment: Binding inhibitory effect on BRD3 protein (same manner as Experimental Example 1-1)
T2 construct: a bromodomain of BRD2 (BD1) and BRD3 (BD1), one of the BRD protein family; GST
T2 sequence (Q15059 34-140 limits assumed, species assumed): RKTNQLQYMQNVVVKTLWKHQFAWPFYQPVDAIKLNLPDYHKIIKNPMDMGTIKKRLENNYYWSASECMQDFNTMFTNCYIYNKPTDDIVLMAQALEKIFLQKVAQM

[3] = tested on: retinal degeneration mouse model; experiment: Electroretinogram (ERG) in blue LED-induced retinal degeneration mouse model; format: in vivo, albino BALB/c mice; conditions: compound 24 nM, Com. Ex. 4 25 mg/kg; for Wavelength enhanced multiple compared to normal saline-treated group, Average value: average of a-wave and b-wave, intravitreal; for Wavelength enhanced multiple compared to normal saline-treated group, a-wave / Wavelength enhanced multiple compared to normal saline-treated group, b-wave: single intravitreal injection 1 hour after LED exposure
Description: In order to fabricate a retinal degeneration model, 7-week-old male albino BALB/c mice were used. Three mice were randomly assigned to each test group, and light and dark were maintained at 12-hour intervals. Each mouse was dark-adapted for 24 hours and then the pupils were dilated with 0.5% tropicamide and 0.5% phenylephrine hydrochloride eye drops (Santen, Osaka, Japan) 30 minutes before blue LED exposure. Unanesthetized mice were exposed to 2,000 lux of a blue LED (460 ± 10 nm) for 2 hours in a cage with reflective interiors. The light intensity was measured using an LED photometer (model TM-201L, TENMARS Electronics, Taipei, Taiwan). After exposure to blue LED, the mice were kept in the dark for 24 hours and then resumed on a 12-hour light/dark cycle for 3 days.
In a test substance control test, mice with retinal degeneration were divided into a normal saline-administered group and a compound-administered group (24 nM) of the present disclosure, and 3 mice were randomly assigned to each test group. A positive control test was divided into a normal saline-administered group and an Eyela (25 mg/kg mouse body weight)-administered group (Comparative Example 4), and three mice were randomly assigned to each test group.
All test groups were administered as a single dose by intravitreal injection 1 hour after LED exposure.
That is, mice were stored in a completely dark room for 16 hours before ERG recordings. All animals were anesthetized intraperitoneally with zolazepam (20 mg/kg) and xylazine (7.5 mg/kg). The cornea was coated with hydroxypropyl methylcellulose gel and covered with a gold ring contact electrode. Ground and reference electrodes were disposed subcutaneously on the tail and ears, respectively. Stimuli were short white flashes delivered through a Ganzfeld stimulator (UTAS-3000; LKC Technologies, Gaithersburg, MD, USA). The signal was amplified and filtered through a digital band-pass filter in the range of 5 to 300 Hz to generate a and b waves. Scotopic ERG, and rod-mediated responses were obtained at increasing light intensities of 0.025 and 3.96 cd/s • m^2. Photopic, cone-mediated responses were obtained after 5-min light adaptation to background light intensity. The recordings were obtained at the light intensity of 6.28 cd/s • m^2. Each recording was the average of three responses obtained within a 15-second stimulation interval. A-wave amplitude was measured from a baseline to the maximum a-wave peak, and b-wave amplitude was measured from the maximum a-wave peak to the maximum b-wave peak.

[4] = tested on: macular degeneration animal model; experiment: Laser burn-induced macular degeneration animal model, OCT and FFA image analysis; format: in vivo, mouse; conditions: compounds 0.022 µg/eye, Com. Ex. 4 20 µg/eye
Description: After the mouse was subjected to general anesthesia, the eye was applied with anesthetic eye drops to be subjected to additional local anesthesia and additionally induce mydriasis. A macular degeneration animal model was prepared by destroying the Bruch's membrane by inducing laser burn according to macular degeneration induction conditions. […] On day 11 of macular degeneration induction, the mice were subjected to general anesthesia and then injected intraperitoneally with a fluorescent contrast agent. The mouse was placed on the sacrifice table, lubricating gel was dropped into the corresponding eye, and an OCT lens was brought into contact with the mouse's cornea. Image analysis for fluorescein fundus angiography (FFA) and OCT was performed using the Image-J program.

T1 sequence (P25440 74-180 limits assumed, species assumed): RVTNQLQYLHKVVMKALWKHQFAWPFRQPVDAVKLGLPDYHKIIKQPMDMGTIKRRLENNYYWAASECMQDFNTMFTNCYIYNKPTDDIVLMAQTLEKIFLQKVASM

SMILES	IC50 [1] [µM]	IC50 [2] [µM]	Wavelength enhanced multiple compared to normal saline-treated group, Average value [3]	Wavelength enhanced multiple compared to normal saline-treated group, a-wave [3]	Wavelength enhanced multiple compared to normal saline-treated group, b-wave [3]	Lesion size compared to negative control group (FFA) ([4]; FFA imaging, day 11, negative control = excipient) [%]	CTF value ([4]; FFA imaging, day 11 of macular degeneration induction, both eyes)	Lesion size compared to negative control group (OCT) ([4]; OCT imaging, day 11, negative control = excipient) [%]	Volume of lesion ([4]; OCT imaging, day 11 of macular degeneration induction, both eyes)
CNC(=O)C1(Cc2ccc(F)cc2)CCN(Cc2ccc(-c3ccccc3-c3cccc4c3CN(C)C4=O)o2)CC1 [Compound 21, 2-methyl-4-(2-(5-(((4-(4-fluorobenzyl)-4'-carboxamidyl)piperidine)methyl)furan-2-yl)phenyl)isoindoline-1-one]	13.9	1.16	2.30	2.17	2.42				
CNC(=O)C1(C)CN(Cc2ccc(-c3ccccc3-c3cccc4c3CN(C)C4=O)o2)CCC1O (stereo not drawn) [Compound 25]	7.68	1.29	1.27	1.52	1.01				
CNC(=O)C1(Cc2ccc(F)cc2)CCN(Cc2oc(-c3ccccc3-c3cccc4c3CN(C)C4=O)cc2C)CC1 [Compound 39, 2-methyl-4-(2-(5-((3-methyl(4-(4-fluorobenzyl)-4'-carboxamidyl)piperidine)methyl)furan-2-yl)phenyl)isoindoline-1-one]	8.67	4.16	1.36	1.21	1.51				
CCC1(C(=O)NC)CCCN(Cc2oc(-c3ccccc3-c3cccc4c3CN(C)C4=O)cc2C)C1 (stereo not drawn) [Compound 40]	10.6	3.96	1.30	1.16	1.43				

The next lines start with results.

IC50 [1] [µM]	IC50 [2] [µM]	Wavelength enhanced multiple compared to normal saline-treated group, Average value [3]	Wavelength enhanced multiple compared to normal saline-treated group, a-wave [3]	Wavelength enhanced multiple compared to normal saline-treated group, b-wave [3]	SMILES	Lesion size compared to negative control group (FFA) ([4]; FFA imaging, day 11, negative control = excipient) [%]	CTF value ([4]; FFA imaging, day 11 of macular degeneration induction, both eyes)	Lesion size compared to negative control group (OCT) ([4]; OCT imaging, day 11, negative control = excipient) [%]	Volume of lesion ([4]; OCT imaging, day 11 of macular degeneration induction, both eyes)
10.9	4.36	1.33	1.31	1.35	CNC(=O)C1(Cc2ccccc2)CCCN1Cc1ccc(-c2ccccc2-c2cccc3c2CN(C)C3=O)o1 (stereo not drawn) [Compound 28]	35.40	325,936 Pixels	51.99	1,132,542 µm^3
9.5	4.76	1.38	1.45	1.31	CN1Cc2c(cccc2-c2ccccc2-c2ccc(COCN3CCC(F)(F)CC3)o2)C1=O [Compound 37, 2-methyl-4-(2-(5-((((4,4-difluoropiperidine-1-yl)methoxy)-3-carboxamidyl)methyl)furan-2-yl)phenyl)isoindoline-1-one]				
10.9	3.77	1.32	1.25	1.38	CNC(=O)CC1C(=O)NCCN1Cc1oc(-c2ccccc2-c2cccc3c2CN(C)C3=O)cc1C (stereo not drawn) [Compound 42, 2-methyl-4-(2-(5-(3-methyl(N-methyl-2-(3-oxopiperazine-2yl)acetamidyl)methyl)furan-2-yl)phenyl)isoindoline-1-one]				
